Legend:
Assay type in all cases: functional
SK-MEL-2 [1] = experiment: Cytotoxicity against human SK-MEL-2 cells assessed as growth level at 10 uM after 48 hrs by SRB assay
[2] = Cytotoxicity against human HL-60(TB) cells after 48 hrs by SRB assay; conditions: HL-60, 48 h; for CC50: read-out: LC50 (the source's name)
EKVX = experiment: Cytotoxicity against human EKVX cells after 48 hrs by SRB assay
[3] = Cytotoxicity against human HOP62 cells after 48 hrs by SRB assay; conditions: HOP-62, 48 h
[4] = Cytotoxicity against human HOP92 cells after 48 hrs by SRB assay; conditions: HOP-92, 48 h
NCI-H226 = experiment: Cytotoxicity against human NCI-H226 cells after 48 hrs by SRB assay; conditions: NCI-H226, 48 h
NCI-H23 = experiment: Cytotoxicity against human NCI-H23 cells after 48 hrs by SRB assay; conditions: NCI-H23, 48 h
NCI-H460 = experiment: Cytotoxicity against human NCI-H460 cells after 48 hrs by SRB assay; conditions: NCI-H460, 48 h; for CC50: read-out: LC50 (the source's name)
[5] = Cytotoxicity against human HCC2998 cells after 48 hrs by SRB assay; conditions: HCC 2998, 48 h
[6] = Cytotoxicity against human HCT15 cells after 48 hrs by SRB assay; conditions: HCT-15, 48 h
HT-29 = experiment: Cytotoxicity against human HT-29 cells after 48 hrs by SRB assay; conditions: HT-29, 48 h
KM12 = experiment: Cytotoxicity against human KM12 cells after 48 hrs by SRB assay; conditions: KM12, 48 h
[7] = Cytotoxicity against human SF268 cells after 48 hrs by SRB assay; conditions: SF-268, 48 h
[8] = Cytotoxicity against human SF295 cells after 48 hrs by SRB assay; conditions: SF-295, 48 h
U-251 = experiment: Cytotoxicity against human U251 cells after 48 hrs by SRB assay; conditions: U-251, 48 h
[9] = Cytotoxicity against human LOXIMVI cells after 48 hrs by SRB assay; conditions: LOX IMVI
SK-MEL-2 [10] = experiment: Cytotoxicity against human SK-MEL-2 cells after 48 hrs by SRB assay; conditions: SK-MEL-2, 48 h
SK-MEL-28 = experiment: Cytotoxicity against human SK-MEL-28 cells after 48 hrs by SRB assay; conditions: SK-MEL-28, 48 h
[11] = Cytotoxicity against human IGROV1 cells after 48 hrs by SRB assay; conditions: IGROV-1, 48 h; for CC50: read-out: LC50 (the source's name)
[12] = Cytotoxicity against human OVCAR3 cells after 48 hrs by SRB assay; conditions: OVCAR-3, 48 h
[13] = Cytotoxicity against human OVCAR4 cells after 48 hrs by SRB assay; conditions: OVCAR-4, 48 h; for CC50: read-out: LC50 (the source's name)
[14] = Cytotoxicity against human OVCAR5 cells after 48 hrs by SRB assay; conditions: OVCAR-5, 48 h
[15] = Cytotoxicity against human NCI-ADR-RES cells after 48 hrs by SRB assay
[16] = Cytotoxicity against human SKOV3 cells after 48 hrs by SRB assay; conditions: SK-OV-3, 48 h; for CC50: read-out: LC50 (the source's name)
786-0 = experiment: Cytotoxicity against human 786-0 cells after 48 hrs by SRB assay; conditions: 786-0, 48 h
[17] = Cytotoxicity against human Caki1 cells after 48 hrs by SRB assay; conditions: CAKI-1, 48 h
[18] = Cytotoxicity against human RXF393 cells after 48 hrs by SRB assay; conditions: RXF 393, 48 h
[19] = Cytotoxicity against human TK10 cells after 48 hrs by SRB assay; conditions: TK-10, 48 h
[20] = Cytotoxicity against human UO31 cells after 48 hrs by SRB assay; conditions: UO-31, 48 h
[21] = Cytotoxicity against human DU145 cells after 48 hrs by SRB assay; conditions: DU-145, 48 h
MCF7 = experiment: Cytotoxicity against human MCF7 cells after 48 hrs by SRB assay; conditions: MCF7, 48 h
MDA-MB-231 = experiment: Cytotoxicity against human MDA-MB-231 cells after 48 hrs by SRB assay; conditions: MDA-MB-231, 48 h
[22] = Cytotoxicity against human BT549 cells after 48 hrs by SRB assay; conditions: BT-549, 48 h; for CC50: read-out: LC50 (the source's name)
T47D = experiment: Cytotoxicity against human T47D cells after 48 hrs by SRB assay
MDA-MB-468 = experiment: Cytotoxicity against human MDA-MB-468 cells after 48 hrs by SRB assay; conditions: MDA-MB-468, 48 h

## C=C1CC[C@@H]2[C@](C)(COC(C)=O)[C@H](OC(C)=O)CC[C@@]2(C)[C@@H]1CC(NCc1cccc(Cl)c1)C1=CCOC1=O (mixture of isomers)
SK-MEL-2 [1]
  Activity: 68.04%

## C=C1CC[C@@H]2[C@](C)(COC(C)=O)[C@H](OC(C)=O)CC[C@@]2(C)[C@@H]1CC(NCc1ccc(F)cc1)C1=CCOC1=O (mixture of isomers)
SK-MEL-2 [1]
  Activity: 73.2%

## C=C1CC[C@@H]2[C@](C)(COC(C)=O)[C@H](OC(C)=O)CC[C@@]2(C)[C@@H]1CC(Nc1ccc(S(=O)(=O)NC(C)=O)cc1)C1=CCOC1=O (mixture of isomers)
SK-MEL-2 [1]
  Activity: -7.41%
[2]
  GI50: 2.45 µM
  TGI: 12 µM
  CC50: > 75 µM
EKVX
  GI50: 10.8 µM
  LC50: 40.3 µM
  TGI: 20.9 µM
[3]
  GI50: 10.8 µM
  LC50: 41.1 µM
  TGI: 21.1 µM
[4]
  GI50: 6.5 µM
  LC50: 35.5 µM
  TGI: 15.9 µM
NCI-H226
  GI50: 1.92 µM
  LC50: > 75 µM
  TGI: 4.62 µM
NCI-H23
  GI50: 5.52 µM
  LC50: 46.4 µM
  TGI: 17.4 µM
NCI-H460
  GI50: 6.72 µM
  TGI: 17.9 µM
  CC50: 44.7 µM
[5]
  GI50: 7.51 µM
  LC50: 40.1 µM
  TGI: 17.3 µM
[6]
  GI50: 1.53 µM
  LC50: 38 µM
  TGI: 4.36 µM
HT-29
  GI50: 1.57 µM
  LC50: 17.9 µM
  TGI: 3.55 µM
KM12
  GI50: 5.11 µM
  LC50: 40.5 µM
  TGI: 15.9 µM
[7]
  GI50: 8.78 µM
  LC50: 47.9 µM
  TGI: 20.5 µM
[8]
  GI50: 11.5 µM
  LC50: 42.2 µM
  TGI: 22 µM
U-251
  GI50: 3.49 µM
  LC50 (concentration giving 50% net cell kill): 30.8 µM
  TGI: 12 µM
[9]
  GI50: 1.25 µM
  LC50: 4.67 µM
  TGI: 2.42 µM
SK-MEL-2 [10]
  GI50: 8.68 µM
  LC50 (concentration causing 50% net cell kill): 42.1 µM
  TGI: 19.1 µM
SK-MEL-28
  GI50: 3.69 µM
  LC50 (lethal concentration 50%): 34.2 µM
  TGI: 13.2 µM
[11]
  GI50: 5.31 µM
  TGI: 15.4 µM
  CC50: 37.1 µM
[12]
  GI50: 1.49 µM
  LC50 (concentration killing 50% of cells): 6.13 µM
  TGI: 3.02 µM
[13]
  GI50: 4.14 µM
  TGI: 13.7 µM
  CC50: 33.7 µM
[14]
  GI50: 4.82 µM
  LC50 (concentration causing 50% net cell kill): 39.5 µM
  TGI: 15.4 µM
[15]
  GI50: 2.51 µM
  LC50: > 75 µM
  TGI: 9.14 µM
[16]
  GI50: 9.31 µM
  TGI: 18.7 µM
  CC50: 37.4 µM
786-0
  GI50: 2.44 µM
  LC50: 26.2 µM
  TGI: 7.98 µM
[17]
  GI50: 3.31 µM
  LC50: 29 µM
  TGI: 11.2 µM
[18]
  GI50: 1.96 µM
  LC50 (concentration causing 50% net cell kill): 18.8 µM
  TGI: 4.69 µM
[19]
  GI50: 8.02 µM
  LC50: 35.6 µM
  TGI: 16.9 µM
[20]
  GI50: 3.71 µM
  LC50 (concentration killing 50% of cells): 31.7 µM
  TGI: 13.2 µM
[21]
  GI50: 2.8 µM
  LC50 (concentration killing 50% of cells): 27 µM
  TGI: 9.74 µM
MCF7
  GI50: 1.92 µM
  LC50 (50% lethal concentration): > 75 µM
  TGI: 11.3 µM
MDA-MB-231
  GI50: 3.32 µM
  LC50: 35.1 µM
  TGI: 11.6 µM
[22]
  GI50: 2.32 µM
  TGI: 7.93 µM
  CC50: 25.1 µM
T47D
  GI50: 2.46 µM
  LC50 (concentration killing 50% of cells): > 75 µM
  TGI: 12 µM
MDA-MB-468
  GI50: 1.53 µM
  LC50: 6.39 µM
  TGI: 3.13 µM

## C=C1CC[C@@H]2[C@](C)(COC(C)=O)[C@H](OC(C)=O)CC[C@@]2(C)[C@@H]1C/C=C1/C(=O)OC[C@H]1OC(C)=O
[2]
  GI50: 2.61 µM
  TGI: 6.78 µM
  CC50: 78.5 µM
EKVX
  GI50: 12.9 µM
  LC50: 50.9 µM
  TGI: 25.6 µM
[3]
  GI50: 4.4 µM
  LC50: > 100 µM
  TGI: 21.3 µM
[4]
  GI50: 13.2 µM
  LC50: 52.7 µM
  TGI: 26.4 µM
NCI-H226
  GI50: 2.14 µM
  LC50: 19.9 µM
  TGI: 5.42 µM
NCI-H23
  GI50: 6.22 µM
  LC50: 66.9 µM
  TGI: 23 µM
NCI-H460
  GI50: 18.6 µM
  TGI: 37.7 µM
  CC50: 76.2 µM
[5]
  GI50: 12.2 µM
  LC50: 61.2 µM
  TGI: 27.3 µM
[6]
  GI50: 1.58 µM
  LC50: 65.5 µM
  TGI: 4.33 µM
HT-29
  GI50: 2.58 µM
  LC50: > 100 µM
KM12
  GI50: 10.5 µM
  LC50: 73.4 µM
  TGI: 27.7 µM
[7]
  GI50: 8.56 µM
  LC50: 55.5 µM
  TGI: 22.7 µM
[8]
  GI50: 13.3 µM
  LC50: 54.2 µM
  TGI: 26.8 µM
U-251
  GI50: 6.09 µM
  LC50 (concentration giving 50% net cell kill): 48.6 µM
  TGI: 19.3 µM
[9]
  GI50: 1.42 µM
  LC50: 5.73 µM
  TGI: 2.85 µM
SK-MEL-2 [10]
  GI50: 10.7 µM
  LC50 (concentration causing 50% net cell kill): 64.3 µM
  TGI: 26.3 µM
SK-MEL-28
  GI50: 1.75 µM
  LC50 (lethal concentration 50%): 6.51 µM
  TGI: 3.38 µM
[11]
  GI50: 2.41 µM
  TGI: 6.23 µM
  CC50: 32 µM
[12]
  GI50: 2.17 µM
  LC50 (concentration killing 50% of cells): 8.15 µM
  TGI: 4.21 µM
[13]
  GI50: 3.57 µM
  TGI: 15.4 µM
  CC50: 41.8 µM
[14]
  GI50: 1.93 µM
  LC50 (concentration causing 50% net cell kill): 7.97 µM
  TGI: 3.92 µM
[15]
  GI50: 4.22 µM
  LC50: > 100 µM
  TGI: 19.8 µM
[16]
  GI50: 19.1 µM
  TGI: 36.3 µM
  CC50: 68.8 µM
786-0
  GI50: 2.02 µM
  LC50: 9.29 µM
  TGI: 4.34 µM
[17]
  GI50: 6.67 µM
  LC50: 44.3 µM
  TGI: 19.6 µM
[18]
  GI50: 1.95 µM
  LC50 (concentration causing 50% net cell kill): 8.75 µM
  TGI: 4.13 µM
[19]
  GI50: 3.81 µM
  LC50: 38.2 µM
  TGI: 13.3 µM
[20]
  GI50: 1.91 µM
  LC50 (concentration killing 50% of cells): 7.92 µM
  TGI: 3.89 µM
[21]
  GI50: 4.47 µM
  LC50 (concentration killing 50% of cells): 38.4 µM
  TGI: 14.7 µM
MCF7
  GI50: 1.83 µM
  LC50 (50% lethal concentration): > 100 µM
  TGI: 6.79 µM
MDA-MB-231
  GI50: 12.5 µM
  LC50: 58.7 µM
  TGI: 27.1 µM
[22]
  GI50: 2.29 µM
  TGI: 5.63 µM
  CC50: 18.8 µM
T47D
  GI50: 2.86 µM
  LC50 (concentration killing 50% of cells): > 100 µM
  TGI: 13.8 µM
MDA-MB-468
  GI50: 2.04 µM
  LC50: 74.4 µM
  TGI: 5.69 µM

## C=C1CC[C@@H]2[C@](C)(COC(C)=O)[C@H](OC(C)=O)CC[C@@]2(C)[C@@H]1CC(NC1CCCC1)C1=CCOC1=O (some centres not stated)
SK-MEL-2 [1]
  Activity: 85.11%

From ChEMBL document CHEMBL3734705, “Synthesis and in vitro cytotoxicity of novel C-12 substituted-14-deoxy-andrographolide derivatives as potent anti-cancer agents” (2015)
